The values that follow come from patent publication US9615577B2, “Herbicidally active cyclic dione compounds, or derivatives therefor, substituted by a phenyl which has an alkynyl-containing substituent” (Syngenta Limited, priority 2012, dated 2017).

Assay type in all cases: in vivo
Assay [1] concerns Brachiaria decumbens (BRADC). Description: Biological Example 3 glasshouse assay for herbicidal activity, using various adjuvant systems, post-emergence. The note with it: 8 g/ha, 14 DAA, adjuvant system per compound. The procedure:
(§1) Post-emergence foliar spray application, 200 L/ha, usually one or two replicates for the weeds (depending on application rate), and two replicates for soybean.
(§2) Standard warm conditions (tropical), in glasshouse. Specifically, the glasshouse bay conditions are 24° C./18° C. day/night; 16/8 hours light/dark; 65% humidity.
(§3) The herbicidal application takes place at the following growth stages for plants which include inter alia one or more of the following plants (usually the herbicidal application takes place on at least the following six plants: DIGSA, ELEIN, SETFA, GLXMA Nikko, and GLXMA TMG133, and either BRADC or BRAPP):
Brachiaria decumbens (BRADC)— growth stage (GS) 12 or 13 (or GS 12)—or, if BRADC is not used, then Brachiaria platyphylla (BRAPP)—growth stage 12 or 13
(§4) Each test Compound is applied with one of the following adjuvant systems (all percentages are final concentrations in the aqueous spray mixture):
(§5) Adjuvant system 1: 0.5% v/v Adigor™ *, 1.0% v/v AMS (ammonium sulphate) and 12.5% v/v IPA (isopropyl alcohol).
Adjuvant system 2: 0.5% v/v Adigor™ * and 12.5% v/v IPA (isopropyl alcohol). […]
(§6) A visual assessment of the % herbicidal damage is made 7 and 14 Days After herbicide Application (DAA) (or, in a minority of cases, 7 and 15 DAA), and the results are recorded as % visual herbicidal damage where 0%=no damage to plants and 100%=plant totally killed. […]

Assay [2] concerns Digitaria sanguinalis (DIGSA). Described as above. The note with it: 8 g/ha, 0.5% v/v Adigor + 1.0% v/v AMS + 12.5% v/v IPA. The procedure: as §1, §2, §3
Digitaria sanguinalis (DIGSA)—growth stage 12 or 13
as §4, §5
(§7) Adjuvant system 2: 0.5% v/v Adigor™ * and 12.5% v/v IPA (isopropyl alcohol).
(§8) Adjuvant system 3: 0.5% v/v Hexamoll™ DINCH **, 1.0% v/v AMS (ammonium sulphate) and 12.5% v/v IPA (isopropyl alcohol).
Seeds of the weed plants, typically including inter alia [either Brachiaria decumbens (BRADC) or Brachiaria platyphylla (BRAPP)], Digitaria sanguinalis (DIGSA), Eleusine indica (ELEIN), Setaria faberi (SETFA) are sown in seed trays (troughs) containing clay loam soil (pH 7.0, 2.2% organic matter, “Trough Mix A”); and soybean seed is sown in pots containing the same soil with 3 soybean seedlings per pot. The plants are sprayed with the test herbicide when they reach the growth stages mentioned above. […]
as §6

Assay [3] deals with Setaria faberi (SETFA). The assay is described as above. The note with it: 8 g/ha, 0.5% v/v Adigor + 1.0% v/v AMS + 12.5% v/v IPA. How it is done:
as §1, §2, §3
Setaria faberi (SETFA)—growth stage 12 or 13
as §4, §5, §7, §8
(§9) Seeds of the weed plants, typically including inter alia [either Brachiaria decumbens (BRADC) or Brachiaria platyphylla (BRAPP)], Digitaria sanguinalis (DIGSA), Eleusine indica (ELEIN), Setaria faberi (SETFA) are sown in seed trays (troughs) containing clay loam soil (pH 7.0, 2.2% organic matter, “Trough Mix A”); and soybean seed is sown in pots containing the same soil with 3 soybean seedlings per pot. The plants are sprayed with the test herbicide when they reach the growth stages mentioned above.
(§10) The test herbicidal solutions are prepared by mixing the appropriate aliquots of the test substance(s) and the adjuvant system indicated above *** in deionised water to give the desired treatment concentration. […]
as §6

Assay [4] concerns Echinochloa crus-galli (ECHCG). Described as above. The note with it: 8 g/ha, 14 DAA, adjuvant system per compound. The procedure: as §1, §2, §3
Echinochloa crus-galli (ECHCG)—growth stage 12 or 13
as §4, §5, §7
Adjuvant system 3: 0.5% v/v Hexamoll™ DINCH **, 1.0% v/v AMS (ammonium sulphate) and 12.5% v/v IPA (isopropyl alcohol). […]
as §6

Assay [5] concerns Abutilon theophasti Medik. (ABUTH). The assay is described as follows: Test 1A glasshouse assay for herbicidal activity, pre-emergence. The note with it: 312 h, 250 g/ha, evaluated after 13 days, read-out: percentage phytotoxicity ABUTH. Put shortly:
(§11)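 Phytotoxicity was rated visually 13 days post-spray, 0 meaning no damage and 100 total damage. Spray solution: acetone/water 50:50 with 0.5% Tween 20, applied one day post-sowing for pre-emergence or after 8 days for post-emergence; plants kept at 24/16 °C, 14 h light, 65% humidity.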

The test system of assay [6] is Alopecurus myosuroides (ALOMY). The assay is described as above. The note with it: 312 h, 250 g/ha, evaluated after 13 days, read-out: percentage phytotoxicity ALOMY. Put shortly:
as §11

Assay [7] concerns Amaranthus retroflexus (AMARE). The description is as above. The note with it: 312 h, 250 g/ha, evaluated after 13 days, read-out: percentage phytotoxicity AMARE. The method, boiled down: as §11
Assay [8] relates to Echinochloa crus-galli (ECHCG). The assay is described as above. The note with it: 312 h, 250 g/ha, evaluated after 13 days, read-out: percentage phytotoxicity ECHCG. Put shortly:
as §11

Assay [9] concerns Setaria faberi (SETFA). The description is as above. The note with it: 312 h, 250 g/ha, evaluated after 13 days, read-out: percentage phytotoxicity SETFA. Put shortly:
as §11

Assay [10] has as its system Abutilon theophasti Medik. (ABUTH). The assay is described as follows: Test 1A glasshouse assay for herbicidal activity, post-emergence. The note with it: 312 h, 250 g/ha, evaluated after 13 days, read-out: percentage phytotoxicity ABUTH. Put shortly: as §11
Assay [11] concerns Alopecurus myosuroides (ALOMY). Described as above. The note with it: 312 h, 250 g/ha, evaluated after 13 days, read-out: percentage phytotoxicity ALOMY. Put shortly:
as §11

The test system of assay [12] is Amaranthus retroflexus (AMARE). The assay is described as above. The note with it: 312 h, 250 g/ha, evaluated after 13 days, read-out: percentage phytotoxicity AMARE. Put shortly: as §11
Assay [13] concerns Echinochloa crus-galli (ECHCG). Described as above. The note with it: 312 h, 250 g/ha, evaluated after 13 days, read-out: percentage phytotoxicity ECHCG. The method, boiled down:
as §11

Assay [14] deals with Setaria faberi (SETFA). Described as above. The note with it: 312 h, 250 g/ha, evaluated after 13 days, read-out: percentage phytotoxicity SETFA. Put shortly:
as §11

Assay [15] deals with Alopecurus myosuroides (ALOMY). The assay is described as follows: Biological Example 2 comparative herbicidal data, post-emergence glasshouse screen. The note with it: 312 h, read-out: Post-emergence herbicidal activities (percentage phytotoxicity) ALOMY. Put shortly:
(§12)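 Plants grown 8 days in a glasshouse (24/16°C day/night, 14 h light, 65% humidity) were sprayed with compound in acetone/water (50:50) containing 0.5% Tween 20. They were kept under the same conditions and watered twice daily. Phytotoxicity was scored visually after 13 days (0 = no damage, 100 = total damage).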

For assay [16], the system named is Echinochloa crus-galli (ECHCG). Described as above. The note with it: 312 h, read-out: Post-emergence herbicidal activities (percentage phytotoxicity) ECHCG. The method, boiled down: as §12
Assay [17] concerns Setaria faberi (SETFA). The assay is described as above. The note with it: 312 h, read-out: Post-emergence herbicidal activities (percentage phytotoxicity) SETFA. Put shortly:
as §12

A further assay has as its system Eleusine indica (ELEIN). The assay is described as follows: Biological Example 3 glasshouse assay for herbicidal activity, using various adjuvant systems, post-emergence. The note with it: 8 g/ha, 15 DAA, 0.5% v/v Adigor + 1.0% v/v AMS + 12.5% v/v IPA. The procedure: as §1, §2, §3
Eleusine indica (ELEIN)—growth stage 12 or 13
as §4, §5, §7, §8, §9, §10, §6

The test system of assay [18] is Amarantus retroflexus (AMARE). The assay is described as follows: Biological Example 2 comparative herbicidal data, post-emergence glasshouse screen. The note with it: Amaranthus retroflexus, read-out: Post-emergence herbicidal activities (percentage phytotoxicity) AMARE.
In assay [19] the test system is Abutilon theophasti Medik. (ABUTH). The description is as above. The note with it: read-out: Post-emergence herbicidal activities (percentage phytotoxicity) ABUTH.

Turning to `COc1cc(C#CCl)cc(Cl)c1C1C(=O)C2CCC(C2)C1=O` (stereo not drawn) [Compound A-25, 3-[2-Chloro-4-(2-chloroethynyl)-6-methoxy-phenyl]bicyclo[3.2.1]octane-2,4-dione], the “percentage control of Brachiaria decumbens (BRADC)” value in assay [1] is 15%. Moreover, in assay [2] (14 DAA), the “percentage control of Digitaria sanguinalis (DIGSA)” value came to 60%. In addition, in the assay on Setaria faberi (SETFA) [3] (14 DAA), the “percentage control of Setaria faberi (SETFA)” value is listed as 40%. In addition, the “percentage control of Echinochloa crus-galli (ECHCG)” value in assay [4] is 45%.

Regarding `C#Cc1cc(Cl)c(C2C(=O)CC3(CCOCC3)CC2=O)c(OC)c1` [Compound B-1, 9-(2-Chloro-4-ethynyl-6-methoxy-phenyl)-3-oxaspiro[5.5]undecane-8,10-dione], the pest or weed control at 250 g/ha was determined as 0% in assay [5]; 90% in assay [6]; 20% in assay [7]; 100% in [8]; 80% in the assay on Setaria faberi (SETFA) [9]; 60% in assay [10]. Moreover, the pest or weed control at 250 g/ha in assay [11] is 100%; in [12], 0%; in [13] it was 100%; with Setaria faberi (SETFA) [14], 100%. Moreover, the pest or weed control at 8 g/ha in assay [15] (8 g/ha application rate) came out at 10%; in assay [16] (8 g/ha application rate), 20%; with Setaria faberi (SETFA) [17] (8 g/ha application rate), 30%; in assay [18] (8 g/ha application rate), 0%; in assay [19] (8 g/ha application rate), 0%. In addition, the pest or weed control at 30 g/ha in [15] (30 g/ha application rate) was 70%; in assay [16] (30 g/ha application rate) it was 80%; in the assay on Setaria faberi (SETFA) [17] (30 g/ha application rate) it was 70%; in [18] (30 g/ha application rate) it was 0%; in [19] (30 g/ha application rate), 10%. For the same molecule, in assay [2] (15 DAA), the “percentage control of Digitaria sanguinalis (DIGSA)” value is 85%. In addition, the “percentage control of Eleusine indica (ELEIN)” value in the assay on Eleusine indica (ELEIN) was 20%. Moreover, the “percentage control of Setaria faberi (SETFA)” value in the assay with Setaria faberi (SETFA) [3] (15 DAA) is 50%.
